These results are taken from patent US20260345742A1, “SYNTHETIC SURFACTANTS FOR INHIBITING CORONAVIRUS INFECTION” (priority 2022, published 2026).

The target of one data set is ACE2 (Homo sapiens, UniProt Q9BYF1). In words: SPR binding (Biacore T200) of ACE2 to chip-linked biotinylated B-YL. In general terms: Surface plasmon resonance follows binding to a sensor surface in real time, without labels.
The nature of data set [1]: Aqueous solution solubility. It counts as physicochemical. The settings on record: stated as the reason for biotinylation.
The target of a further data set is SARS-CoV-2 RBD (Severe acute respiratory syndrome coronavirus 2, UniProt P0DTC2). Kind of data set: SPR binding (Biacore T200) of SARS-CoV-2 RBD to chip-linked biotinylated B-YL. Here is the method: FIG. 3. Surface plasmon resonance (SPR) sensorgrams of rbCovid-19-RBD protein construct and human ACE2 receptor binding to immobilized B-YL peptide. The B-YL peptide was biotinylated to facilitate attachment to the Biacore chip as described in Methodology. Solutions of 1 μM recombinant protein in HBS-EP buffer (10 mM Hepes, pH 7.4, 150 mM NaCl, 3 mM EDTA, 0.005% surfactant P20) were then flowed over the respective chip-linked peptides. The concentration dependent binding of the viral RBD construct (A) and the human ACE-2 receptor (B) to the B-YL lung surfactant peptide are shown with the SPR response indicated in relative response units (RU) on the graph's Y-axis.
One of the best in vitro determinations of the binding of proteins and peptides to one another is by surface plasmon resonance (SPR). This technique allows the direct measurement of the binding of a peptide or protein by attaching one protein to a sensor chip surface and flowing a solution containing a second protein over the surface. The binding affinities derived from such measurements are very similar to those observed in vivo.
The binding affinity of the B-YL lung surfactant peptide to the coronavirus recombinant spike protein construct of SARS-CoV-2 (viral spike protein amino acid sequence) that included the Receptor Binding Domain (RBD) was measured with SPR spectroscopy using a Biacore T200 system (GE Healthcare Bio-Sciences Corp, Piscataway, NJ 08855).
B-YL peptide binding to the recombinant SARS-CoV-2 RBD domain dissolved in a series of seven concentrations (1,000, 500, 250, 125, 62.5, 31.25 and 0 nM) in the analyte and was determined from the sensorgrams, in which arbitrary response units (RUS) are recorded as a function of time.
In Table 1, association and dissociation kinetic rate constants (kon, koff) and equilibrium dissociation constants (KD) were calculated from surface plasmon resonance (SPR) kinetic measurements for aqueous SARS-CoV-2 RBD expressed protein flowing past B-YL surfactant peptide on the Biacore chip. The recombinant SARS-CoV-2 RBD protein was dissolved in running buffer and was flowed past the sensor chip with a BiocoreT200 system (Methods). Kinetic rate constants and equilibrium dissociation constants were determined from curve fitting analysis of SPR traccs.
The binding affinities of the B-YL lung surfactant peptide to the Angiotensin-Converting Enzyme 2 (ACE-2) receptor recombinant construct (human amino acid sequence) and the coronavirus recombinant spike protein construct of Covid-19 (viral spike protein amino acid sequence) that included the Receptor Binding Domain (RBD) were measured with surface plasmon resonance (SPR) spectroscopy using a Biacore T200 system (GE Healthcare Bio-Sciences Corp, Piscataway, NJ 08855).
The SPR binding study was accomplished by associating the ligand (B-YL peptide) immobilized on the SPR sensor surface, and the solute containing the ACE-2 or the Covid-19 protein construct was then flowed past the sensor linked molecule. The binding of the solute to the sensor surface ligand results in an evanescent sensor response, is measured in Response Units (RU) that are proportional to the bound mass.
In Table 3, Association and dissociation kinetic rate constants (kon, koff) and equilibrium dissociation constants (KD) were calculated from surface plasmon resonance (SPR) kinetic measurements for aqueous RBD, and ACE2 flowing past BYL attached to a Biacore chip. Proteins were dissolved in running buffer (10 mM HEPES, 150 mM NaCl, 3 mM EDTA, 0.005% Surfactant P20, pH 7.4) and were flowed past biotin linked B-YL peptide construct on a CSM sensor chip with a Biacore system (Methodology). Kinetic rate constants and equilibrium dissociation constants were determined from curve fitting analysis of SPR traces.

Like-named read-outs stand apart in the source and are kept apart here. Ends that are not written are not given here.

Sequence of ACE2 (Q9BYF1 18-805): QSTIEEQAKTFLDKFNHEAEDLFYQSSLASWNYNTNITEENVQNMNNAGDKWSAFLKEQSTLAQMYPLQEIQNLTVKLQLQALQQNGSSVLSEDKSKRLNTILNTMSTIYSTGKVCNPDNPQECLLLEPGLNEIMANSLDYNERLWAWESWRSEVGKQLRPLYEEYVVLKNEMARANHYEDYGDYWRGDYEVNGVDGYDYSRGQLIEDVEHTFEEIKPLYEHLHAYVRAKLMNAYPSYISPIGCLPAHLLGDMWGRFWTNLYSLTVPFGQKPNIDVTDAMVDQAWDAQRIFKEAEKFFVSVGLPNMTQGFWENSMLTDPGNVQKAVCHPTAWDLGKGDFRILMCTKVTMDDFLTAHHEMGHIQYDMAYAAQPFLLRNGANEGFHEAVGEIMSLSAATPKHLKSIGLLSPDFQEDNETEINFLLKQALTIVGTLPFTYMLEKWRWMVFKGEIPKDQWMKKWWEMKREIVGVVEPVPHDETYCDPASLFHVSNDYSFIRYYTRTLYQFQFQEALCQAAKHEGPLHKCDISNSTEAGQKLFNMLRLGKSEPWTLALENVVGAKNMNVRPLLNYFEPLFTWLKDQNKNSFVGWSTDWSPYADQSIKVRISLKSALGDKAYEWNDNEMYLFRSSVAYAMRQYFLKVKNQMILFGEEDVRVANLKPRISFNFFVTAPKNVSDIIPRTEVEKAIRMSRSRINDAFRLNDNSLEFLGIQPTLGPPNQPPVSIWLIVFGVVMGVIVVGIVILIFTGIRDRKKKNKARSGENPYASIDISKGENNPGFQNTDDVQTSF

Turning to “FPIPLPYYWLYRALIKRIQALIPKGGRLLPQLVYRLVLRYS [B-YL]”, the Kd was found to be 4.37 µM on ACE2; 57 µM at SARS-CoV-2 RBD (RBD(wt) - B-YL, expt. data - SPR (Table 2)); 56.9 µM on SARS-CoV-2 RBD (Table 1, aqueous SARS-CoV-2-RBD over chip-associated biotinylated B-YL, HBS-EP pH 7.4, 37 °C, KD=koff/kon); 57 µM at SARS-CoV-2 RBD (Table 3, aqueous RBD over chip-linked B-YL, pH 7.4, 37 °C, KD=koff/kon). Besides, the figures for the koff at ACE2 (pH 7.4), at SARS-CoV-2 RBD and at SARS-CoV-2 RBD (pH 7.4) were 0.013 s⁻¹, 5.08 × 10^−02 1/s and 0.0508 s⁻¹, respectively. In addition, the association rate constant (kon) at ACE2 (pH 7.4) was determined as 2980 M⁻¹ s⁻¹; on SARS-CoV-2 RBD (pH 7.4, Table 1, aqueous SARS-CoV-2-RBD over chip-associated biotinylated B-YL, HBS-EP pH 7.4, 37 °C) it was 890 M⁻¹ s⁻¹; on SARS-CoV-2 RBD (pH 7.4, Table 3, aqueous RBD over chip-linked B-YL, pH 7.4, 37 °C), 892 M⁻¹ s⁻¹. Moreover, the aqueous solution solubility entry in data set [1] is listed as “limited aqueous solution solubility”.

In general, Kd refers to the concentration at which binding is half-saturated. The koff is the rate constant with which the complex falls apart. What is called kon is the second-order rate constant of association. Read a high kon as faster complex formation.
